{
  "source": "patent US7776858B2",
  "about": "“Methods of treatment of chronic pain using eszopiclone” (Sepracor Inc., priority 2004, dated 2010)",
  "key": {"[1]": {"tested_on": "mice", "test": "Antagonism of oxotremorine induced salivation", "format": "in vivo", "details": "doses up to 300 mg/kg, p.o.", "method": "Eszopiclone was evaluated for antimuscarinic activity in vivo."}, "[2]": {"tested_on": "conscious dogs", "test": "Dose escalation safety study, cardiovascular and respiratory parameters after acute intravenous administration", "method": "To establish the safety of eszopiclone, a dose escalation study was carried out. Cardiovascular and respiratory parameters were evaluated in conscious dogs following acute intravenous administration of (R)-, (S)- or racemic zopiclone at three doses (3, 5 and 12 mg/kg)."}, "[3]": {"details": "acute intravenous, 3, 5 and 12 mg/kg"}},
  "data": [
    {"smiles": "CN1CCN(C(=O)O[C@@H]2c3nccnc3C(=O)N2c2ccc(Cl)cn2)CC1", "note": "[(R)-Zopiclone]", "values": [
      {"measurement": "antagonism of oxotremorine induced salivation", "setting": "[1]", "value": "neither (R)-, (S)-, nor racemic zopiclone significantly antagonized"},
      {"measurement": "hemodynamic effect", "setting": "[2]; acute intravenous, 12 mg/kg", "value": "did not produce a consistent hemodynamic effect"},
      {"measurement": "Blood gases and blood chemistries (pH, pCO2, pO2, hematocrit, and lactate)", "setting": "[2]; [3]", "value": "remained unaffected"},
      {"measurement": "cardiotoxicity by electrocardiogram (ECG)", "setting": "[2]; [3]", "value": "No evidence of cardiotoxicity"}
    ]}
  ]
}
